According to patent US20110306635A1, “PYRIDINE COMPOUNDS AS SUBTYPE SELECTIVE MODULATORS OF ALPHA2B AND /OR ALPHA 2C […]” (ALLERGAN ,INC., priority 2009, published 2011):

Assays:
Type in all cases: cell-based
[1] = biological target: T1, alpha 2C adrenergic receptor (Homo sapiens, UniProt P18825); assay: RSAT (Receptor Selection and Amplification Technology) assay, alpha 2C; conditions: for EC50: cells expressing alpha 2C receptor alone, receptor-mediated growth response; for RSAT efficacy, Alpha 2C: relative efficacy compared to a standard full agonist (value in parentheses)
T1 construct: expressed in transfected cells
T1 sequence (P18825 1-462): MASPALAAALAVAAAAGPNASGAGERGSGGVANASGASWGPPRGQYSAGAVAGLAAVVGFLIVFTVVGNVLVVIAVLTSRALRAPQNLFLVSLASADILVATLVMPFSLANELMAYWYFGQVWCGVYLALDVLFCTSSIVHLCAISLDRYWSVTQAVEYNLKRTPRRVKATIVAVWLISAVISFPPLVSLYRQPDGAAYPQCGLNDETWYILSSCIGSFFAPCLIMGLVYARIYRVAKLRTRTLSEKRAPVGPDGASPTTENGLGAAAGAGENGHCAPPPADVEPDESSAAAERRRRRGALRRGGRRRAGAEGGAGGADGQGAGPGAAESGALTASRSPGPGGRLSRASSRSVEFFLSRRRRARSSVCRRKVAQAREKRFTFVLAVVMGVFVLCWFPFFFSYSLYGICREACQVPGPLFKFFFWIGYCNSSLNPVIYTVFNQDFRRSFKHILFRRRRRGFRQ
Procedure: (§1) The compounds were synthesized and tested for alpha adrenergic activity using the Receptor Selection and Amplification Technology (RSAT) assay (Messier et. al., 1995, Pharmacol. Toxicol. 76, pp. 308-311). Cells expressing each of the alpha-2 adrenergic receptors alone were incubated with the Compound 1 and a receptor-mediated growth response was measured. A compound's activity is expressed as its relative efficacy compared to a standard full agonist (see table). Compound of this invention activates alpha-2B and alpha-2C receptors.
(§2) The results of the RSAT assay with several exemplary compounds of the invention are disclosed in Table 1 below together with the chemical formulas of these exemplary compounds. EC50 values are nanomolar.

[2] = biological target: T2, alpha 2A adrenergic receptor (Homo sapiens, UniProt P08913); assay: RSAT (Receptor Selection and Amplification Technology) assay, alpha 2A; conditions: cells expressing alpha 2A receptor alone; receptor-mediated growth response
T2 construct: expressed in transfected cells
T2 sequence (P08913 1-465): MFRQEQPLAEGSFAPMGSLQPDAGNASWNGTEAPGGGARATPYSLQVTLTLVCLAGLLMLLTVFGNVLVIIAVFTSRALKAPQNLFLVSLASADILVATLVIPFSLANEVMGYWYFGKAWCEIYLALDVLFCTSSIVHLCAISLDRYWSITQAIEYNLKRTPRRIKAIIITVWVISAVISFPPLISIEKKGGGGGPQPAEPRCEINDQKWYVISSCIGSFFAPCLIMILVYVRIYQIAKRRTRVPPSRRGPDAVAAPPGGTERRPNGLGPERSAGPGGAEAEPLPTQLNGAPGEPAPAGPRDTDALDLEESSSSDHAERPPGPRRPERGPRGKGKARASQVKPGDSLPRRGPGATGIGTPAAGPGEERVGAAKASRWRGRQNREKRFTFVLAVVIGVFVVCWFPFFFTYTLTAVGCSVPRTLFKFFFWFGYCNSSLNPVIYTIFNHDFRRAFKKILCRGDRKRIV
Procedure: as §1, §2

[3] = biological target: T3, alpha 2B adrenergic receptor (Homo sapiens, UniProt P18089); assay: RSAT (Receptor Selection and Amplification Technology) assay, alpha 2B; conditions: for EC50: cells expressing alpha 2B receptor alone, receptor-mediated growth response; for RSAT efficacy, Alpha 2B: relative efficacy compared to a standard full agonist (value in parentheses)
T3 construct: expressed in transfected cells
T3 sequence (P18089 1-450): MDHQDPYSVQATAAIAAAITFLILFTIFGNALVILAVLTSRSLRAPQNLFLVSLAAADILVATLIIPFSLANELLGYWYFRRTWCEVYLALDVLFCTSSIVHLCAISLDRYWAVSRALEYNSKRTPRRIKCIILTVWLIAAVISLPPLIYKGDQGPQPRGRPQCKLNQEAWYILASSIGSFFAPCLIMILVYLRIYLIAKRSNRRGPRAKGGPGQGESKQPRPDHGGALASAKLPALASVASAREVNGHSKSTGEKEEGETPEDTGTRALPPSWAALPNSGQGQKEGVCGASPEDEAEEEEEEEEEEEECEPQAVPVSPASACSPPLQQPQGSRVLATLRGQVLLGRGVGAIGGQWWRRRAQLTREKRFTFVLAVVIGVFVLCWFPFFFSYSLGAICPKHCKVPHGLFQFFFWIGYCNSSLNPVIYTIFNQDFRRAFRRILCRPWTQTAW
Procedure: as §1, §2

SMILES	EC50 [1]	RSAT efficacy, Alpha 2C [1]	RSAT EC50 (nM); efficacy, Alpha 2A [2]	EC50 [3]	RSAT efficacy, Alpha 2B [3]
Cc1nccc(C(C)c2c[nH]cn2)c1C (stereo not shown) [4-(1-(1H-imidazol-4-yl)ethyl)-2,3-dimethylpyridine]	1290 nM	0.35	Not active	16.7 nM	0.99
CC(c1c[nH]cn1)c1ccnc2c1CCCC2 (stereo not shown) [4-(1-(1H-imidazol-4-yl)ethyl)-5,6,7,8-tetrahydroquinoline]	370 nM	0.35	Not active	23.5 nM	1.12
